Experimental data: patent publication US20050053625A1, “Method of treating viral infections” (priority 2001, published 2005)

Tests used:
HBV M protein = assay type: cell-based
Description: Hep G2 cells were transfected with an M only expression vector and the next day the cells divided equally into 6 well trays. Compound was added one day latter at the indicated concentrations and the media changed every two days. The presence of sub-viral particles in the medium was detected via the Abbott Diagnostics Auszyme Monoclonal Diagnostic Kit as per manufacture's directions. For Graph: Y-axis is the OD at 492. X-axis indicates the compounds or cells used in the assay.
Hep G2 cells transfected with the HBV M expression vector were treated with the glucosidase inhibitor NB-DNJ (4.5 mM and 6 days latter the amount of M protein associated with the culture medium (secreted) and the cells (retained) determined by ELISA. See text for more details. For graph: x-axis, Drug treatment and location of protein; for y-axis, % of HBV M protein as compared to untreated
Hep G2 cells were transfected with the M only expression vector and seeded as daughter flasks into 6 well trays. Following 4 days of treatment of glucosidase inhibitor (NB-DNJ (4.5 mM)), drug was either removed (in samples labels as —R) or left on as a control. Day 0 is the time in which drug was removed. […] Day 3 and Day 5 are days after drug removal. For Graph: Y-axis is the OD at 492. X-axis indicates the compounds or cells used in the assay. UN=untreated sample; Un-R is the untreated rebound sample; NB=N-butyl-DNJ; NB-R=N-butyl-DNJ rebound sample.
HBV M protein secretion is sensitive to glucosidase inhibition. Our previous work has determined that the secretion of HBV sub-viral particles containing the M protein was sensitive to glucosidase inhibition. (Mehta et al., 1997). That is, when Hep G2 2.215 cells were treated with the glucosidase inhibitor NB-DNJ, purified sub-viral particles appeared to lack the M protein. However, it was unclear if this was the result of the M protein's sensitivity to glucosidase inhibition or required some other viral factor. To test this hypothesis, an expression vector (pCMV-MS^−X) directs the expression of HBV M, but no other viral protein, was created. This “M only” expression vector was then used to determine if the M protein itself, in the absence of other viral functions, was sensitive to glucosidase inhibition. In addition, an expression vector, unable to express “M”, but able to express “S” was made on the same plasmid backbone as the “M” only vector, as was used as a control (pCMV-M^−SX). For these studies three imino sugars were used: N-butyl-DNJ, N-nonyl-DNJ and N-nonyl-DGJ. N-butyl-DNJ is our standard glucosidase inhibitor and has been used by several labs for over 10 years (Carlson et al.,1995, Block et al., 1994). […] Briefly, Hep G2 cells were transfected with the expression vectors pCMV HBV MS^−X and pCMV HBV M^−SX and subsequently seeded into fresh 6 well trays. The transfected cells were treated with the indicated concentrations of NB-DNJ, NN-DNJ or NN-DGJ (as a negative control) and three days latter the media analyzed for the presence of the HBV M or HBV S protein as described in Mehta et al, 2001. […] Fore example, concentrations of NN-DNJ which have no impact upon glycan inhibition, as determined by glycan analysis or α-1-acid-glycoprotein secretion, had no effect upon HBV M protein secretion (data not shown). In contrast to the effect of the glucosidase inhibitors on M protein secretion, the secretion of the HBV S protein was insensitive to either NB-DNJ or NN-DNJ providing further proof that the S protein is insensitive to glucosidase inhibition (data not shown; Block et al., 1994, Mehta et al., 1997, Werr & Prange, 1998). To determine if the secretion of the HBV M protein was prevented by another non-glucosidase mechanism, other compounds with the same alkyl side chain (tail) but altered imino sugar head groups, were synthesized. For example, NN-DGJ has the same chain length as NN-DNJ but is not a glucosidase inhibitor. […]

glucosidase [1] = assay: Glucosidase / glycan processing inhibition in cells; assay type: cell-based; details: 10 μg/ml
[2] = design: species or system dogs; details: dog, in vivo
Description: Determination of the best glucosidase inhibitor and analysis of glucosidase inhibition. Although our work, confirmed by others, has shown that efficient secretion of the HBV glycoprotein MHBs and LHBs requires the function of the ER glucosidase, the specific glucosidase inhibitor that would be most sensible to use in vivo studies is not entirely obvious. […] However, NNDNJ has a dose limiting toxicity in dogs. Although this occurred at very high doses (more than 250 mg/kg), and we believe the toxicity was unrelated to the glucosidase inhibition mechanism), it seems wise to explore the possibility of alternative glucosidase inhibitors for the proposed study. Thus, Aim 1 will be to explore the possibility that other compounds, with less toxicity can be found. […] It is therefore an attractive back up compound. Thus, although NNDNJ could be used in the proposed studies as a “stalking horse” and for a proof of concept, it will be “parked” (held in reserve) as we test other glucosidase inhibitors in our portfolio. Identification of the most appropriate glucosidase inhibitor

[3] = rat, in vivo
Description: Based upon the toxicology data obtained from a 14 day rat study on N-nonyl-DNJ, the toxicity with the alkovirs is predicated to be minimal. With N-nonyl-DNJ, toxicity primarily consisted of GI upset as a result of inhibiting the gut α-glucosidase enzymes involved in carbohydrate digestion. It should be noted that even though toxicity was observed, the maximum tolerated dose was determined to be 250 mg/kg bid. This was well above the amount required to achieve serum drug concentrations that were anti-viral.

2.2.15 cells = assay: Selectivity index (CC90/IC90), MHBs secretion and MTT on 2.2.15 cells; assay type: cell-based
Source text: Selectivity index and cytotoxicity assessment. The concentration of compound needed to reduce the amount of MHBs present in the culture medium (of MHBs producing cells) by 90%, relative to untreated or placebo treated controls will be considered to be the IC90 (inhibitory concentration, 90). The toxicity of the compounds to the tissue cultures will initially be determined the MTT assay, as described in (Lu et al., 1997). Briefly, the amount of MTT enzyme functional in the same sets of cells used for determination of the ability of a compound to reduce the secretion of MHBs (see above) will be measured. Thus, the impact of a compound upon cell viability will be assessed in the same cells in which MHBs reductions have been determined. The concentration of compound that results in a reduction of MTT activity (compared to untreated cultures) of 90% will be considered to be the CC90. The selectivity index will be expressed as the CC90 divided by the IC90. Using these criteria, as determined by assays on 2.2.15 cells under the conditions described in prelim. evidence, the selectivity index of NNDNJ is approximate 100. Thus, compounds will be considered attractive if they have a selectivity index of greater than 100.

glucosidase [4] = details: cited from earlier work
liver cells = details: cited from earlier work

CCCCCCCCCN1C[C@H](O)[C@@H](O)[C@H](O)[C@H]1CO [NN-DNJ, 1,5-dideoxy-1,5-nonylylimino-D-glucitol]
amount of M protein in the culture medium (HBV M protein; 10 μg/ml): almost undetectable levels
HBV M protein secretion at concentrations with no impact upon glycan inhibition (HBV M protein; concentrations which have no impact upon glycan inhibition, data not shown): no effect
secretion of the M protein (HBV M protein; indicated concentrations, three days, FIG. 4): prevented the secretion of the M protein
inhibits glycan processing (glucosidase [1]): 15-20%
dose at which dose limiting toxicity occurred [2]: more than 250 mg/kg
maximum tolerated dose [3]: 250 mg/kg bid
toxicity observed [3]: GI upset
selectivity index (CC90 divided by IC90) (2.2.15 cells): ~100
inhibit glucosidase (glucosidase [4]): 15-20%
uptake by liver cells (liver cells): preferentially taken up by liver cells
